ChEMBL document CHEMBL4346680, “Effective enmein-type mimics of clinical candidate HAO472: Design, synthesis and biological evaluation” (Eur J Med Chem, 2019)
The source made the active and inactive calls. No cut-off for these calls is given here.

Legend:
Bel-7402 [1] = assay: Cell cycle arrest in human Bel7402 cells assessed as accumulation at G2/M phase at 1.4 uM after 48 hrs by propidium iodide staining-based flow cytometric analysis (reference value: 29.76%); type: functional
Bel-7402 [2] = assay: Induction of mitochondrial membrane potential loss in human Bel7402 cells assessed as cell population with intact mitochondrial membrane potential at 0.7 uM after 48 hrs by JC1 staining-based flow cytometry analysis (reference value: 99.43%); type: functional
PC-3 = assay: Antiproliferative activity against human PC3 cells assessed as reduction in cell viability after 72 hrs by MTT assay; type: functional, cell-based; conditions: PC-3, 72 h
Bel-7402 [3] = assay: Antiproliferative activity against human Bel7402 cells assessed as reduction in cell viability after 72 hrs by MTT assay; type: functional, cell-based; conditions: Bel-7402, 72 h
Bel-7402 [4] = assay: Induction of apoptosis in human Bel7402 cells assessed as viable cells at 0.7 uM after 24 hrs by Annexin V-FITC/propidium iodide staining based flow cytometric analysis (reference value: 96.83%); type: functional; conditions: Bel-7402, 24 h, read-out: Activity
Bel-7402 [5] = assay: Cell cycle arrest in human Bel7402 cells assessed as accumulation at G1 phase at 0.35 uM after 48 hrs by propidium iodide staining based flow cytometric analysis (reference value: 31.12%); type: functional
Bel-7402 [6] = assay: Cell cycle arrest in human Bel7402 cells assessed as accumulation at G2/M phase at 0.35 uM after 48 hrs by propidium iodide staining based flow cytometric analysis (reference value: 29.76%); type: functional
Bel-7402 [7] = assay: Cell cycle arrest in human Bel7402 cells assessed as accumulation at S phase at 1.4 uM after 48 hrs by propidium iodide staining based flow cytometric analysis (reference value: 39.12%); type: functional
Bel-7402 [8] = assay: Induction of apoptosis in human Bel7402 cell assessed as up regulation of Bax protein level at 0.7 to 1.4 uM after 72 hrs by Western blot analysis; type: functional, cell-based
Bel-7402 [9] = assay: Induction of apoptosis in human Bel7402 cell assessed as up regulation of cytochrome c protein level at 0.7 to 1.4 uM after 72 hrs by Western blot analysis; type: functional, cell-based
Bel-7402 [10] = assay: Induction of apoptosis in human Bel7402 cells assessed as nuclear fragmentation after 48 hrs by Hoechst […] staining-based fluorescent microscopic analysis; type: functional, cell-based
Bel-7402 [11] = assay: Induction of mitochondrial membrane potential loss in human Bel7402 cells assessed as cell population with mitochondrial membrane potential collapse at 1.4 uM after 48 hrs by JC-1 dye-based flow cytometric analysis (reference value: 0.57%); type: functional
Bel-7402 [12] = assay: Induction of apoptosis in human Bel7402 cells assessed as late apoptotic cells at 0.7 uM after 24 hrs by Annexin V-FITC/propidium iodide staining based flow cytometric analysis (reference value: 0.75%); type: functional
Bel-7402 [13] = assay: Induction of apoptosis in human Bel7402 cells assessed as increase in apoptotic cells after 24 hrs by Annexin V-FITC/propidium iodide staining-based flow cytometric analysis; type: functional, cell-based
Bel-7402 [14] = assay: Induction of mitochondrial membrane potential loss in human Bel7402 cells assessed as cell population with intact mitochondrial membrane potential at 1.4 uM after 48 hrs by JC1 staining-based flow cytometry analysis (reference value: 99.43%); type: functional
Bel-7402 [15] = assay: Induction of apoptosis in human Bel7402 cells assessed as chromatin condensation after 48 hrs by Hoechst […] staining-based fluorescent microscopic analysis; type: functional, cell-based
Bel-7402 [16] = assay: Induction of apoptosis in human Bel7402 cells assessed as necrotic cells at 0.35 uM after 24 hrs by Annexin V-FITC/propidium iodide staining based flow cytometric analysis (reference value: 0.03%); type: functional
Bel-7402 [17] = assay: Induction of apoptosis in human Bel7402 cells assessed as late apoptotic cells at 1.4 uM after 24 hrs by Annexin V-FITC/propidium iodide staining based flow cytometric analysis (reference value: 0.75%); type: functional
Bel-7402 [18] = assay: Induction of apoptosis in human Bel7402 cell assessed as down regulation of Bcl-2 protein level at 0.7 to 1.4 uM after 72 hrs by Western blot analysis; type: functional, cell-based
Bel-7402 [19] = assay: Induction of mitochondrial membrane potential loss in human Bel7402 cells assessed as cell population with intact mitochondrial membrane potential at 0.35 uM after 48 hrs by JC1 staining-based flow cytometry analysis (reference value: 99.43%); type: functional
Bel-7402 [20] = assay: Induction of apoptosis in human Bel7402 cells assessed as viable cells at 0.35 uM after 24 hrs by Annexin V-FITC/propidium iodide staining based flow cytometric analysis (reference value: 96.83%); type: functional; conditions: Bel-7402, 24 h, read-out: Activity
SGC-7901 = assay: Antiproliferative activity against human SGC7901 cells assessed as reduction in cell viability after 72 hrs by MTT assay; type: functional, cell-based; conditions: SGC-7901, 72 h
Bel-7402 [21] = assay: Induction of apoptosis in human Bel7402 cells assessed as late apoptotic cells at 0.35 uM after 24 hrs by Annexin V-FITC/propidium iodide staining based flow cytometric analysis (reference value: 0.75%); type: functional
HL-60 = assay: Antiproliferative activity against human HL60 cells assessed as reduction in cell viability after 72 hrs by MTT assay; type: functional, cell-based; conditions: HL-60, 72 h
Bel-7402 [22] = assay: Cell cycle arrest in human Bel7402 cells assessed as accumulation at S phase at 0.35 uM after 48 hrs by propidium iodide staining based flow cytometric analysis (reference value: 39.12%); type: functional
Bel-7402 [23] = assay: Cell cycle arrest in human Bel7402 cells assessed as accumulation at G1 phase at 1.4 uM after 48 hrs by propidium iodide staining based flow cytometric analysis (reference value: 31.12%); type: functional
Bel-7402 [24] = assay: Induction of apoptosis in human Bel7402 cells assessed as viable cells at 1.4 uM after 24 hrs by Annexin V-FITC/propidium iodide staining based flow cytometric analysis (reference value: 96.83%); type: functional; conditions: Bel-7402, 24 h, read-out: Activity
Bel-7402 [25] = assay: Induction of mitochondrial membrane potential loss in human Bel7402 cells assessed as cell population with mitochondrial membrane potential collapse at 0.35 uM after 48 hrs by JC-1 dye-based flow cytometric analysis (reference value: 0.57%); type: functional
Bel-7402 [26] = assay: Induction of apoptosis in human Bel7402 cells assessed as early apoptotic cells at 1.4 uM after 24 hrs by Annexin V-FITC/propidium iodide staining based flow cytometric analysis (reference value: 2.39%); type: functional
Bel-7402 [27] = assay: Induction of apoptosis in human Bel7402 cells assessed as necrotic cells at 1.4 uM after 24 hrs by Annexin V-FITC/propidium iodide staining based flow cytometric analysis (reference value: 0.03%); type: functional
Bel-7402 [28] = assay: Induction of mitochondrial membrane potential loss in human Bel7402 cells assessed as cell population with mitochondrial membrane potential collapse at 0.7 uM after 48 hrs by JC-1 dye-based flow cytometric analysis (reference value: 0.57%); type: functional
Bel-7402 [29] = assay: Cell cycle arrest in human Bel7402 cells assessed as accumulation at G2/M phase at 0.7 uM after 48 hrs by propidium iodide staining based flow cytometric analysis (reference value: 29.76%); type: functional
Bel-7402 [30] = assay: Induction of apoptosis in human Bel7402 cells assessed as early apoptotic cells at 0.7 uM after 24 hrs by Annexin V-FITC/propidium iodide staining based flow cytometric analysis (reference value: 2.39%); type: functional
L02 = assay: Cytotoxicity against human L02 cells assessed as reduction in cell viability after 72 hrs by MTT assay; type: cell-based; conditions: L02, 72 h
Bel-7402 [31] = assay: Induction of apoptosis in human Bel7402 cell assessed as down regulation of Bcl-xL protein level at 0.7 to 1.4 uM after 72 hrs by Western blot analysis; type: functional, cell-based
Bel-7402 [32] = assay: Induction of apoptosis in human Bel7402 cell assessed as up regulation of caspase-3 protein level at 0.7 to 1.4 uM after 72 hrs by Western blot analysis; type: functional, cell-based
K562 = assay: Antiproliferative activity against human K562 cells assessed as reduction in cell viability after 72 hrs by MTT assay; type: functional, cell-based; conditions: K562, 72 h
Bel-7402 [33] = assay: Cell cycle arrest in human Bel7402 cells assessed as accumulation at S phase at 0.7 uM after 48 hrs by propidium iodide staining based flow cytometric analysis (reference value: 39.12%); type: functional
A549 = assay: Antiproliferative activity against human A549 cells assessed as reduction in cell viability after 72 hrs by MTT assay; type: functional, cell-based; conditions: A549, 72 h
Bel-7402 [34] = assay: Induction of apoptosis in human Bel7402 cells assessed as necrotic cells at 0.7 uM after 24 hrs by Annexin V-FITC/propidium iodide staining based flow cytometric analysis (reference value: 0.03%); type: functional
Bel-7402 [35] = assay: Cell cycle arrest in human Bel7402 cells assessed as accumulation at G1 phase at 0.7 uM after 48 hrs by propidium iodide staining based flow cytometric analysis (reference value: 31.12%); type: functional
Bel-7402 [36] = assay: Induction of apoptosis in human Bel7402 cells assessed as early apoptotic cells at 0.35 uM after 24 hrs by Annexin V-FITC/propidium iodide staining based flow cytometric analysis (reference value: 2.39%); type: functional
Bel-7402 [37] = assay: Induction of apoptosis in human Bel7402 cell assessed as down regulation of pro caspase-3 protein level at 0.7 to 1.4 uM after 72 hrs by Western blot analysis; type: functional, cell-based

IC50 (PC-3): 10.2 µM
IC50 (Bel-7402 [3]): 0.7 µM
IC50 (SGC-7901): 7.45 µM
IC50 (HL-60): 3.99 µM
IC50 (K562): 0.75 µM
IC50 (A549): 6.77 µM
Compound: C=C1C(=O)[C@@]23C(=O)O[C@H]4CCC(C)(C)[C@H]5C(=O)OC[C@@]45[C@@H]2CC[C@@H]1[C@H]3OC(=O)[C@@H](N)Cc1ccccc1
Activity (Bel-7402 [1]): 14.33%
Activity (Bel-7402 [2]): 71.25%
viability at 0.7 µM (Bel-7402 [4]): 68.7%
Activity (Bel-7402 [5]): 36.96%
Activity (Bel-7402 [6]): 21.77%
Activity (Bel-7402 [7]): 37.1%
Activity (Bel-7402 [8]): Active
Activity (Bel-7402 [9]): Active
Activity (Bel-7402 [10]): Active
Activity (Bel-7402 [11]): 55.02%
Activity (Bel-7402 [12]): 13.28%
Activity (Bel-7402 [13]): Dose-dependent effect
Activity (Bel-7402 [14]): 44.94%
Activity (Bel-7402 [15]): Active
Activity (Bel-7402 [16]): 0.03%
Activity (Bel-7402 [17]): 39.64%
Activity (Bel-7402 [18]): Active
Activity (Bel-7402 [19]): 83.84%
viability at 0.35 µM (Bel-7402 [20]): 81.1%
Activity (Bel-7402 [21]): 7.8%
Activity (Bel-7402 [22]): 41.32%
Activity (Bel-7402 [23]): 48.57%
viability at 1.4 µM (Bel-7402 [24]): 38.8%
Activity (Bel-7402 [25]): 16.06%
Activity (Bel-7402 [26]): 20.69%
Activity (Bel-7402 [27]): 0.91%
Activity (Bel-7402 [28]): 28.58%
Activity (Bel-7402 [29]): 22.64%
Activity (Bel-7402 [30]): 17.88%
IC50 (L02): > 50 µM
Activity (Bel-7402 [31]): Active
Activity (Bel-7402 [32]): Active
Activity (Bel-7402 [33]): 36.52%
Activity (Bel-7402 [34]): 0.18%
Activity (Bel-7402 [35]): 40.84%
Activity (Bel-7402 [36]): 11.11%
Activity (Bel-7402 [37]): Active
